The record followed here is patent US20090286836A1, “Novel Compounds” (priority 2008, published 2009).

SMILES strings stand for the structures. Where a name gives a salt, the structure may show the parent alone.

The target in one assay is human NK1 receptor (Homo sapiens, UniProt P25103). As to the kind of experiment: NK1 filtration binding assay with [3H]-GR205171 on human NK1-CHO cell membranes. Further details: expressed in transfected cells. The following applies: average of five independent experiments, [3H]-GR205171 radioligand, read-out: NK1 binding affinity pKi (converted). The procedure:
The NK1 binding affinity of the compounds of the invention was determined using the following filtration binding assay using [^3H]-GR205171 as radioligand for human NK1 receptor stably expressed in CHO (Chinese Hamster Ovary) cells (see C. Griffante et al, Br. J. Pharmacol. 2006, 148, 39-45; H. M. Sarau et al, J. Pharmacol. Experimental Therapeutics 2000, 295(1), 373-381 and D. T. Beattie et al., Br. J. Pharmacol. 1995, 116, 3149-3157).
CHO cells stably expressing the human cloned neurokinin NK1 receptor were cultured in Dulbecco's Modified Eagle's Medium/F12 Ham (DMEM/F12Ham) supplemented with 10% foetal bovine serum and 2 mM L-glutamine. Cells were maintained in 5% CO2 in a humidified incubator at 37° C. […]
Binding assay was carried out in 96 deep well polypropylene plates (Whatman) in a volume of 400 μl consisted of 100 μl of incubation buffer (containing 50 mM HEPES, pH 7.4, 3 mM MnCl2, and 0.02% BSA), 4 μl of DMSO (total binding) or increasing concentrations of the compounds in the invention dissolved in DMSO (1 pM-1 μM final concentration), 100 μl of the radioligand [^3H]-GR205171 (0.2 nM final concentration) in incubation buffer and 200 μl of human NK1-CHO cell membranes suspension (4 μg/ml final) in incubation buffer. […] Filterplates were dried and retained radioactivity was counted in a Top Count (Perkin-Elmer). […]

The test system of the next assay is common marmosets. The assay can be described thus: marmoset human threat test. The class given is in vivo, common marmoset. The following applies: for No. jumps / No. postures: marmoset, oral, 1 h before test; for No. jumps: mean±SEM (n=4), index of locomotor activity; for No. postures: mean±SEM (n=7). The procedure:
For example the marmoset human threat test (Costall et al., 1988
The study utilised in house laboratory-bred male and female common marmosets over 2 years of age, weighing 300-500 g. The animals were caged in couples, in a housing room maintained at 25±1° C., 60% humidity and a 12 hour light/dark cycle (lights on at 0600, with 30 min simulated dawn and twilight). Testing was carried out with the animals situated in the home cage.
One hour before the test animals were treated orally with vehicle (0.5% HPMC) or test compound (1 ml/kg). After a wash-out period of at least three days, treatments were reassigned and the study was complete when all animals had received all treatments. Number of specific behavioural postures in response to the human threat and the number of jumps were analysed in this study. The postures recorded in the test were those described by Costall et al (1988). and the number of jumps from the back of the cage to the cage front provided an index of locomotor activity to assess potential for sedation or locomotor stimulation.
Results are expressed as mean±SEM (n=7). of number of postures and as a mean±SEM (n=4) of number of jumps. Data were subjected to one-way analysis of variance (ANOVA) followed by Dunnett's test, comparing each compound dose with vehicle treatment, using Statistica software (version 8.0) Statistically significant differences with respect to vehicle are indicated as *P<0.01.

Sequence of human NK1 receptor (P25103 whole entry): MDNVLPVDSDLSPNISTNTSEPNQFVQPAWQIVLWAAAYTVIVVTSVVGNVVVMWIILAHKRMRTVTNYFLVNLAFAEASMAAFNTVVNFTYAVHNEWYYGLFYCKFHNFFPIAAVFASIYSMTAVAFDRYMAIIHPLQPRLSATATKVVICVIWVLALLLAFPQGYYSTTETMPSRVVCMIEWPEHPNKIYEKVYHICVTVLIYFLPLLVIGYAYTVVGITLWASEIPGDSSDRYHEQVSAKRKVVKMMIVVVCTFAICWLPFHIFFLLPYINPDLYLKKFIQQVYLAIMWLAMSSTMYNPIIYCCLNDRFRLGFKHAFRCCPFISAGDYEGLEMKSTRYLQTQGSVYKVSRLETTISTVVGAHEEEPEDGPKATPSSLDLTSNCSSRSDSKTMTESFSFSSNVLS

As to `Cc1cc(F)ccc1-c1cc([C@H]2CC[C@](C)(C(N)=O)N2)ncc1N(C)C(=O)C(C)(C)c1cc(C(F)(F)F)cc(C(F)(F)F)c1` [Example 11, (5R)-5-[5-[{2-[3,5-bis(trifluoromethyl)phenyl]-2-methylpropanoyl}(methyl)amino]-4-(4-fluoro-2-methylphenyl)-2-pyridinyl]-2-methyl-D-prolinamide bis-hydrochloride], the Ki at human NK1 receptor was 0.132 nM. In addition, in the assay with common marmosets (marmoset, 0.1, 0.3 or 1 mg/kg oral, significant at 0.3 and 1 mg/kg (P<0.01), no reduction in number of jumps), the “effect on number of postures (anxiolytic effect)” value is “dose dependent reduction in the number of postures”. Further, the No. jumps in the assay with common marmosets (0.1 mg/kg) is on record as 20.1 ± 2.1; in the assay with common marmosets (0.3 mg/kg) it was 13.4 ± 2.5; with common marmosets (1 mg/kg) it was 13.0 ± 2.1. In addition, the No. postures is on record as 9.4 ± 1.0 in the assay with common marmosets (0.1 mg/kg); “*6.3 ± 0.9” with common marmosets (0.3 mg/kg, *P<0.01 vs vehicle); “*4.0 ± 0.4” in the assay with common marmosets (1 mg/kg, *P<0.01 vs vehicle).
